Values quoted from earlier work as cited in patent US11696905B2, “Ready-to-use tranexamic acid intravenous solution” (Boulevard Patience et Beaujonc Nº3/1, priority 2018, dated 2023).

What was measured:
[1] = oral administration
[2] = four doses of 10-20 mg per kg body weight 36-48 hours before surgery

time antifibrinolytically active concentration remained in the serum [2]: 7 to 8 h | time antifibrinolytically active concentration remained in the tissues investigated [2]: up to 17 hours | absorption from the human gastrointestinal tract [1]: 40%
Compound: NC[C@H]1CC[C@H](C(=O)O)CC1 [Tranexamic acid, trans-4-(aminomethyl)cyclohexanecarboxylic acid]
antifibrinolytically active concentration (in vivo): 10 µg/mL
